In US4070469A, “Compound for the treatment of bovine mastitis” (priority 1975, dated 1978):
Values after ≈ are worked out from the molar mass of the structure shown. “Also recorded” adds a separate entry of the source. Like-named read-outs stand apart in the source and are kept apart here.

How the values were obtained:
Staph.Aureus [1] = assay: Minimal bactericidal activity (MBC) in milk, field isolates; type: cell-based; conditions: Staphylococcus aureus, in milk at pH 7.2 - 7.4
From the text: (§1) The activity of some of said nitrofuryl quinolines derivatives against Strep.uberis and Stap.Aureus in milk has been compared with the activity of some of the compounds so far utilised in the treatment of bovine mastitis. The results are shown in Table I. (The nitrofuryl quinoline derivatives have general formula [drawing 1] the meaning of R, A, R', B, Y, X and Z being given in the Table. R1 =O whenever indicated then the N-oxide is concerned; NF stands for nitrofuryl)
(§2) Minimal Bactericidal/Activity (MBC) of representative Nitrofuryl
(§3) in mcg/ml in milk at pH 7.2 - 7.4. Versus Standards (Field

Strep.uberis = assay: as above; type: cell-based; conditions: Streptococcus uberis, in milk at pH 7.2 - 7.4
From the text: as §1, §2, §3

[2] = tested on: Strep.uberis and Stap.Aureus; assay: Activity against mastitis bacteria in presence of milk (Table I, summary in words); type: cell-based
From the text: as §1

[3] = Residue of active compound in milk of the cow; type: in vivo; conditions: 500 mg in 7 ml P.E.G. base; for concentration at 24 h / concentration at 32 h: bovine, milk
Description: Said four compounds were then tested for the length of time they could be detected in the milk of the cow. For this purpose 500 mg in 7 ml of a polyethylene glycol (P.E.G.) base of each compound were administered to several cows and the residue of active compound in milk were measured in mcg/ml after 24, 32 and 40 hours respectively.

udder = assay: Number of leucocytes (somatic cells) in milk / irritation of the udder; type: in vivo, cow; conditions: for number of leucocytes (sematic cells) in milk, 40 hrs.: 40 hrs after 500 mg in 7 ml P.E.G. base; for number of leucocytes (sematic cells) in milk, 48 hrs.: 48 hrs after 500 mg in 7 ml P.E.G. base; for number of leucocytes (sematic cells) in milk, 56 hrs.: 56 hrs after 500 mg in 7 ml P.E.G. base; for number of leucocytes (sematic cells) in milk, before: before administration (baseline)
Description: Thereafter 500 mg of each of said compounds in 7 ml of a P.E.G. base and also 7 ml of said base above were administered to several cows and the number of leucocytes (sematic cells) in 10^6 per ml of milk were measured before administration and 40, 48 and 56 hours thereafter. The numbers of leucocytes present indicate the degree of irritation of the udder.

Steph.aureus = assay: Efficiency test in cows suffering from bovine mastitis; type: in vivo, cow; conditions: 2 doses, 24 hours interval
Description: In has been shown that said range is effectful by an efficiency test in which various doses of 4-(5-nitrofuryl)-.quinaldinic acid N-oxide were administered to cows suffering from bovine mastitis. There were adminstered 2 doses in intervals of 24 hours. The results are shown in Table V in cured quarters/treated quarters.

LD50 rats = conditions: rat, in vivo
Staph.Aureus [4] = assay: Sensitivity of udder pathogens in milk, serial dilution; type: cell-based; conditions: 24 hours, 86 strains
Description: (§4) This indication was verified by testing in vitro by the method of serial dilution the sensitivity of said compound against udder pathogens in milk in various concentrations measured in meg/ml of milk. The number of strains which were killed at each concentration were measured after 24 hours.

Str.dysgalactiae = assay: as above; type: cell-based; conditions: 24 hours, 18 strains
Description: as §4

Str.agalactiac = assay: as above; type: cell-based; conditions: 24 hours, 34 strains
Description: as §4

Str.uberis = assay: as above; type: cell-based; conditions: 24 hours, 32 strains
Description: as §4

Enterococci = assay: as above; type: cell-based; conditions: 24 hours, 8 strains
Description: as §4

C.pyogenes = assay: as above; type: cell-based; conditions: 24 hours, 3 strains
Description: as §4

Str.uberls = assay: Efficiency test in cows suffering from bovine mastitis; type: in vivo, cow; conditions: 2 doses, 24 hours interval
LD50 mice = conditions: mouse, in vivo
Str.dysgal. = assay: Efficiency test in cows suffering from bovine mastitis; type: in vivo, cow; conditions: 2 doses, 24 hours interval
[5] = field isolate 2337, read-out: Minimal Bactericidal Activity (MBC), Staph.Aureus 2337
[6] = field isolate 2372, read-out: Minimal Bactericidal Activity (MBC), Staph.Aureus 2372
[7] = field isolate 60B, read-out: Minimal Bactericidal Activity (MBC), Strep.uberis 60B
[8] = field isolate 127A, read-out: Minimal Bactericidal Activity (MBC), Strep.uberis 127A
[9] = 25 meg/ml of milk (so in the source)

SMILES: CCOc1ccc2c(-c3ccc([N+](=O)[O-])o3)cc(C(=O)O)[n+]([O-])c2c1 [Compound 26]
- MBC (Staph.Aureus [1]; [5]): 1 µg/mL (≈ 2.9 µM)
- MBC (Staph.Aureus [1]; [6]): 1 µg/mL (≈ 2.9 µM)
- MBC (Strep.uberis; [7]): 0.03 µg/mL (≈ 0.0871 µM)
- MBC (Strep.uberis; [8]): 1 µg/mL (≈ 2.9 µM)
- activity in presence of milk (in words) [2]: significant activity in milk
- concentration at 24 h [3]: 12000 ng/mL
- concentration at 32 h [3]: 5000 ng/mL
- number of leucocytes (sematic cells) in milk, 40 hrs. (udder): > 7.5 10^6 per ml
- number of leucocytes (sematic cells) in milk, 48 hrs. (udder): 3 10^6 per ml
- number of leucocytes (sematic cells) in milk, 56 hrs. (udder): 2.65 10^6 per ml
- number of leucocytes (sematic cells) in milk, before (udder): 0.22 10^6 per ml

SMILES: Cc1cc(-c2ccc([N+](=O)[O-])o2)c2ccc(O)cc2[n+]1[O-] [Compound 22]
- MBC (Staph.Aureus [1]; [5]): 1 µg/mL (≈ 3.49 µM)
- MBC (Staph.Aureus [1]; [6]): 0.5 µg/mL (≈ 1.75 µM)
- MBC (Strep.uberis; [7]): 0.12 µg/mL (≈ 0.419 µM)
- MBC (Strep.uberis; [8]): 0.5 µg/mL (≈ 1.75 µM)
- activity in presence of milk (in words) [2]: significant activity in milk
- concentration at 24 h [3]: 20000 ng/mL
- number of leucocytes (sematic cells) in milk, 40 hrs. (udder): 5 10^6 per ml
- number of leucocytes (sematic cells) in milk, 48 hrs. (udder): 5 10^6 per ml
- number of leucocytes (sematic cells) in milk, 56 hrs. (udder): 3.15 10^6 per ml
- number of leucocytes (sematic cells) in milk, before (udder): 0.28 10^6 per ml

SMILES: O=C(O)c1cc(-c2ccc([N+](=O)[O-])o2)c2ccccc2[n+]1[O-] [Compound 1, 2-carboxy-4-[2'-(5'-nitrofuryl)]quinoline N-oxide]
- cured quarters, percent (Steph.aureus; 50 mg): 50%
- cured quarters/treated quarters (Steph.aureus; 50 mg): 15/30
- cured quarters, percent (Steph.aureus; 100 mg): 75%
- cured quarters/treated quarters (Steph.aureus; 100 mg): 6/8
- cured quarters, percent (Steph.aureus; 250 mg): 75%
- cured quarters/treated quarters (Steph.aureus; 250 mg): 6/8
- cured quarters, percent (Steph.aureus; 500 mg): 88%
- cured quarters/treated quarters (Steph.aureus; 500 mg): 8/9
- LD50 (LD50 rats): 1600 mg/kg
- MBC (Staph.Aureus [1]; [5]): 0.5 µg/mL (≈ 1.67 µM)
- MBC (Staph.Aureus [1]; [6]): 0.25 µg/mL (≈ 0.833 µM)
- MBC (Strep.uberis; [7]): 0.015 µg/mL (≈ 0.05 µM)
- MBC (Strep.uberis; [8]): 0.25 µg/mL (≈ 0.833 µM)
- number of strains killed (Staph.Aureus [4]; 0.16 meg/ml of milk): 4 strains
- number of strains killed (Staph.Aureus [4]; 0.31 meg/ml of milk): 14 strains
- number of strains killed (Staph.Aureus [4]; 0.62 meg/ml of milk): 51 strains
- number of strains killed (Staph.Aureus [4]; 1.25 meg/ml of milk): 15 strains
- number of strains killed (Staph.Aureus [4]; [9]): 1 strains
- number of strains killed (Str.dysgalactiae; 0.02 meg/ml of milk): 1 strains
- number of strains killed (Str.dysgalactiae; 0.04 meg/ml of milk): 2 strains
- number of strains killed (Str.dysgalactiae; 0.08 meg/ml of milk): 13 strains
- number of strains killed (Str.dysgalactiae; 0.16 meg/ml of milk): 1 strains
- number of strains killed (Str.dysgalactiae; 0.62 meg/ml of milk): 1 strains
- number of strains killed (Str.agalactiac; 0.02 meg/ml of milk): 5 strains
- number of strains killed (Str.agalactiac; 0.04 meg/ml of milk): 12 strains
- number of strains killed (Str.agalactiac; 0.08 meg/ml of milk): 13 strains
- number of strains killed (Str.agalactiac; 0.16 meg/ml of milk): 1 strains
- number of strains killed (Str.agalactiac; 0.31 meg/ml of milk): 1 strains
- number of strains killed (Str.agalactiac; 0.62 meg/ml of milk): 1 strains
- number of strains killed (Str.agalactiac; 1.25 meg/ml of milk): 1 strains
- number of strains killed (Str.uberis; 0.16 meg/ml of milk): 1 strains
- number of strains killed (Str.uberis; 0.31 meg/ml of milk): 9 strains
- number of strains killed (Str.uberis; 0.62 meg/ml of milk): 18 strains
- number of strains killed (Str.uberis; 1.25 meg/ml of milk): 2 strains
- number of strains killed (Str.uberis; 5 meg/ml of milk): 1 strains
- number of strains killed (Str.uberis; [9]): 1 strains
- number of strains killed (Enterococci; 0.04 meg/ml of milk): 2 strains
- number of strains killed (Enterococci; 0.08 meg/ml of milk): 3 strains
- number of strains killed (Enterococci; 0.16 meg/ml of milk): 2 strains
- number of strains killed (Enterococci; 0.31 meg/ml of milk): 1 strains
- number of strains killed (C.pyogenes; 0.62 meg/ml of milk): 1 strains
- number of strains killed (C.pyogenes; 1.25 meg/ml of milk): 2 strains
- activity in presence of milk (in words) [2]: significant activity in milk; also recorded: the most active one
- cured quarters, percent (Str.uberls; 50 mg): 61.5%
- cured quarters/treated quarters (Str.uberls; 50 mg): 8/13
- cured quarters, percent (Str.uberls; 100 mg): 80%
- cured quarters/treated quarters (Str.uberls; 100 mg): 4/5
- cured quarters, percent (Str.uberls; 250 mg): 80%
- cured quarters/treated quarters (Str.uberls; 250 mg): 4/5
- cured quarters, percent (Str.uberls; 500 mg): 84%
- cured quarters/treated quarters (Str.uberls; 500 mg): 5/6
- LD50 (LD50 mice): 3000 mg/kg
- time remaining in the milk (in words) [3]: remained the shortest time in the milk
- concentration at 24 h [3]: 9800 ng/mL
- irritation of the udder (in words) (udder; 500 mg in 7 ml P.E.G. base): caused the lowest irritation
- number of leucocytes (sematic cells) in milk, 40 hrs. (udder): 0.95 10^6 per ml
- number of leucocytes (sematic cells) in milk, 48 hrs. (udder): 1.5 10^6 per ml
- number of leucocytes (sematic cells) in milk, 56 hrs. (udder): 0.95 10^6 per ml
- number of leucocytes (sematic cells) in milk, before (udder): 0.28 10^6 per ml
- cured quarters, percent (Str.dysgal.; 50 mg): 62.5%
- cured quarters/treated quarters (Str.dysgal.; 50 mg): 10/16
- cured quarters, percent (Str.dysgal.; 100 mg): 80%
- cured quarters/treated quarters (Str.dysgal.; 100 mg): 4/5
- cured quarters, percent (Str.dysgal.; 250 mg): 83%
- cured quarters/treated quarters (Str.dysgal.; 250 mg): 5/6

SMILES: COc1ccc2c(-c3ccc([N+](=O)[O-])o3)cc[n+]([O-])c2c1 [Compound 19]
- MBC (Staph.Aureus [1]; [5]): 0.5 µg/mL (≈ 1.75 µM)
- MBC (Staph.Aureus [1]; [6]): 0.5 µg/mL (≈ 1.75 µM)
- MBC (Strep.uberis; [7]): 0.12 µg/mL (≈ 0.419 µM)
- MBC (Strep.uberis; [8]): 0.5 µg/mL (≈ 1.75 µM)
- activity in presence of milk (in words) [2]: significant activity in milk
- concentration at 24 h [3]: 26500 ng/mL
- concentration at 32 h [3]: 5000 ng/mL
- number of leucocytes (sematic cells) in milk, 40 hrs. (udder): 5 10^6 per ml
- number of leucocytes (sematic cells) in milk, 48 hrs. (udder): 3 10^6 per ml
- number of leucocytes (sematic cells) in milk, 56 hrs. (udder): 2 10^6 per ml
- number of leucocytes (sematic cells) in milk, before (udder): 0.60 10^6 per ml
